{"source": "patent US6177475A", "about": "“Methods of using integrin modulators for treatment of inflammation” (priority 1997, dated 2001)", "key": {"Jurkat cells": {"test_system": "Jurkat cells", "test": "Disruption of cell clusters formed by Jurkat cells in culture", "assay_type": "cell-based", "details": "Homo sapiens, 16 to 24 h", "protocol": "T-lymphocytic H9 and Jurkat cells were maintained as suspension cultures in RPMI-1640 medium supplemented with 10% (v/v) heat-inactivated fetal calf serum, 50 micrograms/ml gentamycin and 2 mM L-glutamine. To assess the effects of Ajoene on adhesive interactions of the cells, H9 cells or Jurkat cells were seeded in 96-well flat-bottomed plates (3×10^5cells per well) and cultured in the presence of log 10 dilutions of Ajoene (experiment) or its vehicle (control) for 16 to 24 h.\nThe requirement of integrins for the formation of cell-to-cell contacts in each of these systems has long been established. It is known that in platelets the relevant integrin is GP IIb/IIIa (β3). Neutrophil aggregation is underlain by interactions of β2 integrins (e.g., LFA-1 and/or Mac-1) with their surface counterstructures, while cohesion of T-cells is supported by both β2 integrins and fibronectin-binding β1 integrins (e.g., VLA-4 and VLA-5)."}, "LFA-1": {"test_system": "LFA-1", "test": "TPA-induced homotypic adhesion (aggregation) of peripheral blood leukocytes", "assay_type": "cell-based, human", "details": "~100 micromoles per liter Ajoene", "protocol": "Normal human peripheral blood leukocytes (PBLS) were cultured for 5 days without stimulation in complete RPMI medium (Sigma Chemical Co., St. Louis, Mo.), washed, and resuspended at 9×10^6 cells/ml in the same medium. Fifty microliters of the cells were added in duplicate to wells containing 100 microliters of an Ajoene solution (50 micrograms/ml),anti-LFA-1 antibody (H52) solution (20 micrograms/ml), or vehicle controls. The plate was then incubated for 30 min at 37° C. before adding to each well 50 microliters of a solution of 12-O-tetradecanoyl 4-β-phorbol 13-acetate (TPA) to the final concentration of 125 ng/ml). The plate was incubated for 45 min at 37° C., followed by additional 10-min incubation at room temperature on a shaking platform. The cells were allowed to settle, and adhesion was quantitated by counting the number of free cells in random high-power fields in the duplicate wells. Following incubation with TPA, 75 to 90% of cells are typically found in large aggregates as a result of LFA-1 upregulation. TPA induced a 90% aggregation in PBLs that were preincubated with vehicle controls. […] This example provides conclusive evidence that, in addition to GP IIb/IIIa and VIA-4, Ajoene modulates the integrin LFA-1. […]"}, "LFA-1 (ICAM-1)": {"test_system": "LFA-1 (ICAM-1)", "test": "Adhesion of TPA-activated Jurkat cells to SVT2/ICAM-1 monolayers", "assay_type": "cell-based", "details": "Homo sapiens, 0.75 h, SVT2/ICAM-1, TPA 125 ng/ml, 45 min", "protocol": "SVT2 cells transfected with human ICAM-1 or VCAM-1 (SVT2/ICAM-1 and […], respectively) were plated into 96-well plates and cultured overnight. […] The labeled Jurkat cells were washed three times and resuspended at a density of 4×10^6 cells/ml in complete RPMI medium. Serial dilutions of Ajoene were prepared in complete RPMI medium. Aliquots of the cells (0.5 ml) were then mixed with an equal volume of Ajoene dilutions (1:1 v/v), and the mixtures incubated at 37° C. for 30 min. Thereafter, Ajoene-incubated cells were added in duplicate to SVT2/ICAM-1 and SVT2/VCAM-1 monolayers, and TPA was introduced into each well to the final concentration of 125 ng/ml. The plates were incubated at 37° C. for 45 min, after which the non-adherent cells were removed by washing with warm complete RPMI medium. The bound labeled cells were lysed by adding 1% Triton X-100 solution in 0.1 N HCl. The lysates were assayed in a gamma counter to determine the percentage of bound cells. […] Thus, coculturing of Jurkat cells with SVT2/ICAM-1 and SVT2/VCAM-1 cells makes it possible to assess, respectively, the function of IFA-1 and VLA-4 under identical conditions. In the absence of TPA, 10 and 20% of the added Jurkat cells adhered to SVT2/ICAM-1 and SVT2/VCAM-1 cells, respectively. […]"}, "HSV-2 strain G": {"test_system": "HSV-2 strain G", "test": "Herpes simplex virus infection of WI-38 fibroblasts (ELISA for HSV antigens)", "assay_type": "cell-based", "details": "Human alphaherpesvirus 2, WI-38, 24 hours", "protocol": "The effect on herpes simplex virus (HSV) infection was assessed using human embryonic lung fibroblast line WI-38 and HSV-2 strain G (derived from a human with the genital infection). Semiconfluent fibroblast monolayers grown in 96-well culture plates (10^5 cells per well) were exposed to serial dilutions of Ajoene or vehicle control, followed immediately by addition of HSV-2 (5000 CCID50 per well). After 24 hours of culturing, the supernatants were examined by ELISA for the content of HSV antigens."}, "cell-free HIV": {"test_system": "cell-free HIV", "test": "Cell-free HIV infection of syncytiotrophoblasts", "assay_type": "cell-based, HIV-1", "details": "200 micromoles per liter and lower concentrations tested", "protocol": "In order to assess the ability of Ajoene to inhibit lymphocyte-mediated HIV infection of syncytiotrophoblasts, HIV-1LBi -infected MOLT-4 cells were added to adherent cultures of uninfected syncytiotrophoblasts in the presence and absence of Ajoene. Various additional control conditions were also established. First, some wells received filtered (0.45 micrometer) supernatant of cell-free HIV from infected cell cultures. Yet other negative controls included syncytiotrophoblasts cultured alone and syncytiotrophoblasts cultured with uninfected MOLT-4 cells. After 24 hours, the cocultures were washed to removed unbound lymphocytes, fixed, permeabilized, stained for viral core antigens (p24 and p55), and viewed under a fluorescence microscope."}, "WI-38 cells": {"test_system": "WI-38 cells", "assay_type": "cell-based, human"}, "sperm cells": {"test_system": "sperm cells", "assay_type": "cell-based, human", "details": "200 micromoles per l", "protocol": "Human sperm was from a donor with known fertility (No. 113). The sample (freshly taken) was allowed to liquefy, was diluted 3:1 with BWW/HSA, was centrifuged at 325×g for 5 minutes, and was washed once with the same medium. A small portion of the original sample was analyzed (computer-assisted sperm analysis) using the Cell-Soft package. The pellet of washed sperm cells was subjected to the swim-up procedure (1 ml of the medium was added for this purpose). The swim-up was collected (about 0.5 ml), the cells were counted (Makler chamber), and their motility determined (%). The volume of the sample was adjusted with the medium to give 10^7 cells per ml, and the samples were incubated overnight (18 hours) at 37° C. for capacitation. Thereafter, motility and cell density were determined once again, and the sample was divided into three equal portions, each to be subjected to appropriate treatment.\nEquivalent volumes of ethanol and BWW/HSA were added to the two control portions of each cell type (vehicle control and untreated cells, respectively)."}}}
{"smiles": "C=CCSSC=CC[S+]([O-])CC=C", "note": "(centres unmarked) [Ajoene, 4,5,9-trithiadodeca-1,6,11-triene-9-oxide]", "values": [{"measurement": "IC50", "setting": "Jurkat cells", "value": "~0.05", "unit": "µM"}, {"measurement": "inhibition of TPA-induced homotypic adhesion of PBLs", "setting": "LFA-1", "value": "completely inhibited"}, {"measurement": "IC50", "setting": "LFA-1 (ICAM-1)", "value": 10, "unit": "µM"}, {"measurement": "IC50", "setting": "HSV-2 strain G", "value": 6, "unit": "µM"}, {"measurement": "IC100", "setting": "HSV-2 strain G; read-out: concentration completely preventing HSV infection", "value": 17, "unit": "µM"}, {"measurement": "inhibition of cell-free HIV infection of syncytiotrophoblasts", "setting": "cell-free HIV", "value": "totally inhibited"}, {"measurement": "toxicity", "setting": "WI-38 cells", "value": "no detectable toxicity"}, {"measurement": "toxicity or impaired cellular vitality (motility of sperm cells)", "setting": "sperm cells", "value": "not associated with toxicity or impaired cellular vitality"}]}
